# Results taken from the supplement of paper PMC11208160.
# Assay: recombinant barcode read abundance after kanamycin selection (control-corrected) (log10(CPM+1)); higher = more efficient recombination; sequences stand for … in AGTGCAGAGAAAATCGGCCAGTTTTCTCTGCCTGCAGTCCGCATGCCGT…AGATTTATGCAGCGGACTGCCTTTCTCCCAAAGTGATAAACCGGACAGTATCATGGACCGGTTTTCCCGGTAATCCGTATTTGCAAGGTTGGTTTCACT; site = the 11-nt target
# How it was run: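 Pooled oligos, each joining a target to an IS621 bridge RNA target-binding loop, were cloned and co-electroporated with a donor plasmid into E. coli. Selective plates carried chloramphenicol/ampicillin/kanamycin and 0.1 mM IPTG, while chloramphenicol/ampicillin LB agar served as control, with two replicates of each. Recombination efficiency rests on averaged, control-corrected counts per million of barcodes at recombinant junctions, shown as log10(CPM+1).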
# 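Further: IS621 recombinase and bridge RNA in Escherichia coli cells.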
row,Sequence,recombinant barcode read abundance (log10)
1,CAGGGCCCTTGGGTTCTAACCTGTTGCCT (site GAGGGCCCTAG),0.527
2,CAGGGCCCTTGGGTTCTAACCTGTTGCCT (site TAGGGCCCTAG),0.397
3,CAGGGGACTTGGGTTCTAACCTGTTGCCA (site CAGGGGACTTG),1.04
4,CAGGGGACTTGGGTTCTAACCTGTTGCCA (site CCGTGGACTTG),0.217
5,CAGGGGCCTTGGGTTCTAACCTGTTGCCT (site CAGAGGCCTAG),0.0366
6,CAGGGGCCTTGGGTTCTAACCTGTTGCCT (site CAGCGGCCTAG),0.187
7,CAGGGGCCTTGGGTTCTAACCTGTTGCCT (site CAGGGGCCTAG),1.97
8,CAGGGGCCTTGGGTTCTAACCTGTTGCCT (site CAGTGGCCTAG),0.185
9,CAGGTACCTTGGGTTCTAACCTGTTGCAG (site CAGGTACCTAT),0.368
10,CAGGTACCTTGGGTTCTAACCTGTTGCAG (site CAGGTACCTCT),3.12
11,CAGGTGCCTTGGGTTCTAACCTGTTGCCT (site CAGGTGCCTAG),2.25
12,CAGGTGCCTTGGGTTCTAACCTGTTGCCT (site CCGGTGCCTAG),0.216
13,CAGGTGCCTTGGGTTCTAACCTGTTGCCT (site CGGGTGCCTAG),0.122
14,CAGGTGCCTTGGGTTCTAACCTGTTGCCT (site CTGGTGCCTAG),0.526
15,CAGTAGTCTTGGGTTCTAACCTGTTGCCT (site CAGTAATCTAG),0.579
16,CAGTAGTCTTGGGTTCTAACCTGTTGCCT (site CAGTACTCTAG),0.155
17,CAGTAGTCTTGGGTTCTAACCTGTTGCCT (site CAGTAGTCTAG),1.07
18,CAGTAGTCTTGGGTTCTAACCTGTTGCCT (site CAGTATTCTAG),0.0913
19,CAGTATTCTTGGGTTCTAACCTGTTGCCT (site CAGTAATCTAG),0.0186
20,CAGTATTCTTGGGTTCTAACCTGTTGCCT (site CAGTACTCTAG),0.116
21,CAGTATTCTTGGGTTCTAACCTGTTGCCT (site CAGTAGTCTAG),0.0496
22,CAGTATTCTTGGGTTCTAACCTGTTGCCT (site CAGTATTCTAG),0.702

row,Sequence,recombinant barcode read abundance (log10)
1,CAGTCTACTTGGGTTCTAACCTGTTGCGT (site CAGTCTACTAC),0.308
2,CAGTCTACTTGGGTTCTAACCTGTTGCGT (site TCAAGCCCTCT),0.292
3,CAGTCTGCTTGGGTTCTAACCTGTTGCCT (site CAATCTGCTAG),0.141
4,CAGTCTGCTTGGGTTCTAACCTGTTGCCT (site CACTCTGCTAG),0.0321
5,CAGTCTGCTTGGGTTCTAACCTGTTGCCT (site CAGTCTGCTAG),0.512
6,CAGTCTGCTTGGGTTCTAACCTGTTGCCT (site CATTCTGCTAG),0.182
7,CAGTTAGCTTGGGTTCTAACCTGTTGCCT (site CAGTTAGCTAG),0.642
8,CAGTTAGCTTGGGTTCTAACCTGTTGCCT (site CAGTTCGCTAG),0.182
9,CAGTTAGCTTGGGTTCTAACCTGTTGCCT (site CAGTTGGCTAG),0.0405
10,CAGTTAGCTTGGGTTCTAACCTGTTGCCT (site CAGTTTGCTAG),0.192
11,CAGTTGGCTTGGGTTCTAACCTGTTGCCT (site CAGTTAGCTAG),0.04
12,CAGTTGGCTTGGGTTCTAACCTGTTGCCT (site CAGTTCGCTAG),0.0864
13,CAGTTGGCTTGGGTTCTAACCTGTTGCCT (site CAGTTGGCTAG),1.01
14,CAGTTGGCTTGGGTTCTAACCTGTTGCCT (site CAGTTTGCTAG),0.232
15,CATAGACCTTGGGTTCTAACCTGTTGCAT (site CATAGACCTAT),1.82
16,CATAGACCTTGGGTTCTAACCTGTTGCAT (site CATAGCCCTAT),0.0625
17,CATAGACCTTGGGTTCTAACCTGTTGCAT (site CATAGGCCTAT),0.0233
18,CATAGACCTTGGGTTCTAACCTGTTGCAT (site CATAGTCCTAT),0.0411
19,CATAGACCTTGGGTTCTAACCTGTTGCCT (site CATAGACCTAG),1.45
20,CATAGACCTTGGGTTCTAACCTGTTGCCT (site GATAGACCTAG),0.00901
21,CATAGATCTTGGGTTCTAACCTGTTGCTT (site CAAAGATCTAA),0.271
22,CATAGATCTTGGGTTCTAACCTGTTGCTT (site CACAGATCTAA),0.385

row,Sequence,recombinant barcode read abundance (log10)
1,CATAGATCTTGGGTTCTAACCTGTTGCTT (site CAGAGATCTAA),0.0253
2,CATAGATCTTGGGTTCTAACCTGTTGCTT (site CATAGATCTAA),0.119
3,CATAGCCCTTGGGTTCTAACCTGTTGCAT (site CATAGACCTAT),0.176
4,CATAGCCCTTGGGTTCTAACCTGTTGCAT (site CATAGCCCTAT),1.11
5,CATAGCCCTTGGGTTCTAACCTGTTGCAT (site CATAGGCCTAT),0.117
6,CATAGCCCTTGGGTTCTAACCTGTTGCAT (site CATAGTCCTAT),0.0192
7,CATATCCCTTGGGTTCTAACCTGTTGCAT (site CATATCCCTAT),1.33
8,CATATCCCTTGGGTTCTAACCTGTTGCAT (site CTAATCCCTAT),0.03
9,CATATGACTTGGGTTCTAACCTGTTGCCT (site CATATGACTAG),1.2
10,CATATGACTTGGGTTCTAACCTGTTGCCT (site TCAGGAGCTTA),0.126
11,CATCATTCTTGGGTTCTAACCTGTTGCCT (site CATAATTCTAG),0.144
12,CATCATTCTTGGGTTCTAACCTGTTGCCT (site CATCATTCTAG),0.215
13,CATCATTCTTGGGTTCTAACCTGTTGCCT (site CATGATTCTAG),0.118
14,CATCATTCTTGGGTTCTAACCTGTTGCCT (site CATTATTCTAG),0
15,CATCCGACTTGGGTTCTAACCTGTTGCCT (site CATCCGACTAG),0.92
16,CATCCGACTTGGGTTCTAACCTGTTGCCT (site CATCCGCCTAG),0.163
17,CATCCGACTTGGGTTCTAACCTGTTGCCT (site CATCCGGCTAG),0.33
18,CATCCGACTTGGGTTCTAACCTGTTGCCT (site CATCCGTCTAG),0.0237
19,CATCCTCCTTGGGTTCTAACCTGTTGCTG (site CATCCTACTCC),0.463
20,CATCCTCCTTGGGTTCTAACCTGTTGCTG (site CATCCTCCTCA),0.666
21,CATCGGACTTGGGTTCTAACCTGTTGCAA (site CATCGGACTTT),1.14
22,CATCGGACTTGGGTTCTAACCTGTTGCAA (site GGCTAACCTAG),0.336

row,Sequence,recombinant barcode read abundance (log10)
1,CATGACACTTGGGTTCTAACCTGTTGCCT (site CATGACACTAG),2.45
2,CATGACACTTGGGTTCTAACCTGTTGCCT (site CATGCCGCTAG),0.0486
3,CATGCTACTTGGGTTCTAACCTGTTGCTC (site CATGCGACTCA),0.191
4,CATGCTACTTGGGTTCTAACCTGTTGCTC (site CATGCTACTGA),0.627
5,CATGTGCCTTGGGTTCTAACCTGTTGCCT (site CATGTGCCTAG),1.89
6,CATGTGCCTTGGGTTCTAACCTGTTGCCT (site TATGCGCCTAG),0.329
7,CATTATCCTTGGGTTCTAACCTGTTGCGT (site CATTATCCTAC),1.59
8,CATTATCCTTGGGTTCTAACCTGTTGCGT (site CATTGTCCTAC),0.0752
9,CATTCCTCTTGGGTTCTAACCTGTTGCCT (site CATTCCTCTAG),0.0779
10,CATTCCTCTTGGGTTCTAACCTGTTGCCT (site CCTTCCTCTAG),0.122
11,CATTCCTCTTGGGTTCTAACCTGTTGCCT (site CGTTCCTCTAG),0.0677
12,CATTCCTCTTGGGTTCTAACCTGTTGCCT (site CTTTCCTCTAG),0.0613
13,CATTCGCCTTGGGTTCTAACCTGTTGCGT (site CATTCGCCTAC),0.329
14,CATTCGCCTTGGGTTCTAACCTGTTGCGT (site TGGCTAGCTGT),0.138
15,CATTGCCCTTGGGTTCTAACCTGTTGCCT (site CATTGCCCTAG),0.234
16,CATTGCCCTTGGGTTCTAACCTGTTGCCT (site CCTTGCCCTAG),0.2
17,CATTGCCCTTGGGTTCTAACCTGTTGCCT (site CGTTGCCCTAG),0.242
18,CATTGCCCTTGGGTTCTAACCTGTTGCCT (site CTTTGCCCTAG),0.0205
19,CATTGGACTTGGGTTCTAACCTGTTGCTT (site AATTGGACTAA),0.222
20,CATTGGACTTGGGTTCTAACCTGTTGCTT (site CATTGGACTAA),0.371
